These results are taken from paper PMC5351590, “Cucurbitacin B exerts anti-cancer activities in human multiple myeloma cells in vitro and in vivo by modulating multiple cellular pathways” (Oncotarget, 2016).

The structures appear in SMILES notation.

The target in the experiment is T1, Aurora A (Homo sapiens, UniProt O14965).
T1 construct: gene AURKA
T1 sequence (O14965 1-403): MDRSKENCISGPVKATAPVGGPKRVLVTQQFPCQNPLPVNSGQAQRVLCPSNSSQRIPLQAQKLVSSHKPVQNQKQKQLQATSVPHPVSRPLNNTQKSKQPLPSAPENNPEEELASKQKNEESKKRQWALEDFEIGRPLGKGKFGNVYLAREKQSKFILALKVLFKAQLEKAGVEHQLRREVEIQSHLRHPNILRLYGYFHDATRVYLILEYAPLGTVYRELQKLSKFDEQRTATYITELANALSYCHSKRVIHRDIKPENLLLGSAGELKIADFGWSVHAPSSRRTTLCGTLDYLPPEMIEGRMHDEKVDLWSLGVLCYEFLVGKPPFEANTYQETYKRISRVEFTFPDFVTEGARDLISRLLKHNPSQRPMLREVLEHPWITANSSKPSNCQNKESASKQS
Briefly: radiometric […]-ATP kinase assay with purified kinase (Dundee panel; dose-response). The experiment is classed as biochemical.

`CC(=O)OC(C)(C)/C=C/C(=O)[C@](C)(O)[C@H]1[C@H](O)C[C@@]2(C)[C@@H]3CC=C4[C@@H](C[C@H](O)C(=O)C4(C)C)[C@]3(C)C(=O)C[C@]12C` [CuB, Cucurbitacin B]: it took 100 nM to reach half-maximal inhibition (IC50).

The IC50 is the concentration needed to halve the response being measured.
